Measured values reported in patent US6794365B2, “Malonic acid derivatives, processes for their preparation their use and pharmaceutical compositions containing them” (Aventis Pharma Deutschland GmbH, priority 2000, dated 2004).
Counter-ions that a name gives are not always drawn.

Target: factor Xa (Homo sapiens, UniProt P00742)
Assay: In vitro Factor Xa assay (Test 1a), chromogenic substrate S-2765
Type: biochemical
Parameters: purchased Enzyme Research Laboratories, Inc; South Bend, Ind
Conditions: Factor Xa inhibitory activity; Ki from IC50 corrected for substrate competition; 25° C., pH 7.8; read-out: Ki (FXa)
Procedure: Purified enzymes are used in chromogenic assays. To determine the inhibition constant, the IC50 value is corrected for competition with substrate using the formula: […] where Km is the Michaelis-Menten-constant (Y.-C. Chen and W. H. Prusoff, Biochem. Pharmacol. 22: […] (1973), which is incorporated herein by reference). TBS-PEG buffer (50 mM Tris-Cl, pH 7.8, 200 mM NaCl, 0.05% (w/v) PEG-8000, 0.02% (w/v) NaN3) is used for this assay. The IC50 is determined by combining in appropriate wells of a Costar half-area microtiter plate 25 μl human factor Xa (Enzyme Research Laboratories, Inc.; South Bend, Ind.) in TBS-PEG; 40 μl 10% (v/v) DMSO in TBS-PEG (uninhibited control) or various concentrations of the compound to be tested diluted in 10% (v/v) DMSO in TBS-PEG; and substrate S-2765 (N-benzyloxycarbonyl-[…]-nitroanilide; Kabi Pharmacia, Inc.; Franklin Ohio) in TBS-PEG. […] The initial velocity of chromogenic substrate hydrolysis is measured by the change in absorbance at 405 nm using a Bio-tek Instruments kinetic plate reader ([…] 25° C. during the linear portion of the time course (usually 1.5 min after addition of substrate).

Sequence of factor Xa (P00742 235-488 limits assumed): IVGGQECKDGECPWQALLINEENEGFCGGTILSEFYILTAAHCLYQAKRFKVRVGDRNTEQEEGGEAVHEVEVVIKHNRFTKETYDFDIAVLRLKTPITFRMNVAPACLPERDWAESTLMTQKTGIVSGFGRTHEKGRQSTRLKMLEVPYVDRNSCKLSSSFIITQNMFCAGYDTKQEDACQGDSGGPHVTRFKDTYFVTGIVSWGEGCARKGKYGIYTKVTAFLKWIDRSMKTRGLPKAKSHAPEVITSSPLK
Sequence of factor Xa (P00742 41-179 partner limits assumed): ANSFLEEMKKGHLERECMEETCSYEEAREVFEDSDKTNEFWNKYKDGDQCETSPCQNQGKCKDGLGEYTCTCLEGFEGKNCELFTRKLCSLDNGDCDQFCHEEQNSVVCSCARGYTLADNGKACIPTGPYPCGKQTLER

Ki [nM]	SMILES
604	CN(C)C(=O)C(Cc1ccc(C(=N)N)cc1)C(=O)N1Cc2ccccc2C[C@H]1C(=O)N[C@@H](CCCNC(=N)N)C(N)=O (stereo partly drawn) [Example 10, 2-[3-(4-Carbamimidoyl-phenyl)-2-dimethylcarbamoyl-propionyl]-1,2,3,4-tetrahydro-isoquinoline-3-(S)-carboxylic acid (1-(S)-carbamoyl-4-guanidino-butyl)-amide trifluoroacetic acid salt]
2290	C=CCNC(=O)C(Cc1ccc(C(=N)N)cc1)C(=O)N[C@@H](Cc1ccc(N)cc1)C(=O)N[C@@H](CCCNC(=N)N)C(N)=O (stereo partly drawn) [Example 17, N-Allyl-N′-[2-(4-amino-phenyl)-1-(S)-(1-(S)-carbamoyl-4-guanidino-butylcarbamoyl)-ethyl]-2-(4-carbamimidoyl-benzyl)-malonamide trifluoroacetic acid salt]
8370	CCC(C)[C@@H](C(=O)N[C@@H](CCCNC(=N)N)C(N)=O)N(C)C(=O)C(Cc1ccc(C(=N)N)cc1)C(=O)Nc1ccccc1 (stereo partly drawn) [Example 21, 2-(4-Carbamimidoyl-benzyl)-N-[1-(S)-(1-(S)-carbamoyl-4-guanidino-butylcarbamoyl)-2-methyl-butyl]-N-methyl-N′-phenyl-malonamide trifluoroacetic acid salt]
47	CCCC[C@H](NC(=O)C(Cc1ccc(C(=N)N)cc1)C(=O)NC)C(=O)N[C@@H](CCCNC(=N)N)C(N)=O (stereo partly drawn) [Example 28, 2-(4-Carbamimidoyl-benzyl)-N-[1-(S)-(1-(S)-carbamoyl-4-guanidino-butylcarbamoyl)-pentyl]-N′-methyl-malonamide trifluoroacetic acid salt]
153	CCCC[C@H](NC(=O)C(Cc1ccc(C(=N)N)cc1)C(=O)Nc1ccccc1)C(=O)N[C@@H](CCCNC(=N)N)C(N)=O (stereo partly drawn) [Example 30, 2-(4-Carbamimidoyl-benzyl)-N-[1-(S)-(1-(S)-carbamoyl-4-guanidino-butylcarbamoyl)-pentyl]-N′-phenyl-malonamide trifluoroactic acid salt]
1100	N=C(N)NCCC[C@H](NC(=O)[C@H](Cc1ccc2ccccc2c1)NC(=O)C(Cc1ccc(C(=N)N)cc1)C(=O)Nc1ccccc1)C(N)=O (stereo partly drawn) [Example 38, 2-(4-Carbamimidoyl-benzyl)-N-[1-(S)-(1-(S)-carbamoyl-4-guanidino-butylcarbamoyl)-2-naphthalen-2-yl-ethyl]-N′-phenyl-malonamide trifluoroacetic acid]
10.7	CN(C)C(=O)C(Cc1ccc(C(=N)N)cc1)C(=O)N[C@@H](CCc1ccccc1)C(=O)N[C@@H](CCCNC(=N)N)C(N)=O (stereo partly drawn) [Example 40, 2-(4-Carbamimidoyl-benzyl)-N-[1-(S)-(1-(S)-carbamoyl-4-guanidino-butylcarbamoyl)-3-phenyl-propyl]-N′,N′-dimethyl-malonamide trifluoroacetic acid salt]
26500	C=CCNC(=O)C(Cc1ccc(C(=N)N)cc1)C(=O)N[C@@H](CCCN)C(=O)N[C@@H](CCCNC(=N)N)C(N)=O (stereo partly drawn) [Example 45, N-Allyl-N′-[4-amino-1-(S)-(1-(S)-carbamoyl-4-guanidino-butylcarbamoyl)-butyl]-2-(4-carbamimidoyl-benzyl)-malonamide trifluoroacetic acid salt]
3010	N=C(N)NCCC[C@H](NC(=O)[C@H](CO)NC(=O)C(Cc1ccc(C(=N)N)cc1)C(=O)Nc1ccccc1)C(N)=O (stereo partly drawn) [Example 54, 2-(4-Carbamimidoyl-benzyl)-N-[1-(S)-(1-(S)-carbamoyl-4-guanidino-butylcarbamoyl)-2-hydroxy-ethyl]-N′-phenyl-malonamide trifluoroacetic acid salt]
2.1	CN(C)C(=O)C(Cc1ccc(C(=N)N)cc1)C(=O)N[C@H](C(=O)N[C@@H](CCCNC(=N)N)C(N)=O)c1ccccc1 (stereo partly drawn) [Example 56, 2-(4-Carbamimidoyl-benzyl)-N-[(S)-(1-(S)-carbamoyl-4-guanidino-butylcarbamoyl)-phenyl-methyl]-N′,N′-dimethyl-malonamide trifluoroacetic acid salt]
57.5	N=C(N)NCCC[C@H](NC(=O)[C@@H](NC(=O)C(Cc1ccc(C(=N)N)cc1)C(=O)Nc1ccccc1)c1ccccc1)C(N)=O (stereo partly drawn) [Example 58, 2-(4-Carbamimidoyl-benzyl)-N-[(S)-(1-(S)-carbamoyl-4-guanidino-butylcarbamoyl)-phenyl-methyl]-N′-phenyl-malonamide trifluoroacetic acid salt]
957	C=CCNC(=O)C(Cc1ccc(C(=N)N)cc1)C(=O)N[C@@H](COCc1ccccc1)C(=O)N[C@@H](CCCNC(=N)N)C(N)=O (stereo partly drawn) [Example 61, N-Allyl-N′-[2-benzyloxy-1-(S)-(1-(S)-carbamoyl-4-guanidino-butylcarbamoyl)-ethyl]-2-(4-carbamimidoyl-benzyl)-malonamide trifluoroacetic acid salt]
285	CN(C)C(=O)C(Cc1ccc(C(=N)N)cc1)C(=O)N[C@@H](CCC(=O)O)C(=O)N[C@@H](CCCNC(=N)N)C(=O)N[C@@H](CC1CCCCC1)C(N)=O (stereo partly drawn) [Example 69, 4-(S)-[3-(4-Carbamimidoyl-phenyl)-2-dimethylcarbamoyl-propionylamino]-4-[1-(S)-(1-(S)-carbamoyl-2-cyclohexyl-ethylcarbamoyl)-4-guanidino-butylcarbamoyl]-butyric acid trifluoroacetic acid salt]
4300	CCCC[C@@H](NC(=O)C(Cc1ccc(C(=N)N)cc1)C(=O)N(C)C)C(=O)N[C@@H](CCCNC(=N)N)C(=O)O (stereo partly drawn) [Example 72, 2-(S)-{2-(R)-[3-(4-Carbamimidoyl-phenyl)-2-dimethylcarbamoyl-propionylamino]-hexanoylamino}-5-guanidino-pentanoic acid trifluoroacetic acid salt]
39.3	N=C(N)NCCC[C@H](NC(=O)[C@@H](NC(=O)C(Cc1ccc(C(=N)N)cc1)C(=O)NCc1ccccc1)C1CCCCC1)C(=O)O (stereo partly drawn) [Example 82, 2-(S)-{2-(S)-[2-Benzylcarbamoyl-3-(4-carbamimidoyl-phenyl)-propionylamino]-2-cyclohexyl-acetylamino}-5-guanidino-pentanoic acid trifluoroacetic acid salt]
6480	C=CCNC(=O)C(Cc1ccc(C(=N)N)cc1)C(=O)N[C@@H](CCC(=O)O)C(=O)N[C@@H](CCCNC(=N)N)C(=O)N[C@@H](CC1CCCCC1)C(N)=O (stereo partly drawn) [Example 89, 4-(S)-[2-Allylcarbamoyl-3-(4-carbamimidoyl-phenyl)-propionylamino]-4-[1-(S)-(1-(S)-carbamoyl-2-cyclohexyl-ethylcarbamoyl)-4-guanidino-butylcarbamoyl]-butyric acid trifluoroacetic acid salt]

SMILES	Ki [nM]
CN(C)C(=O)C(Cc1ccc(C(=N)NO)cc1)C(=O)N[C@H](C(=O)N[C@@H](CCCNC(=N)N)C(N)=O)C1CCCCC1 (single isomer, unassigned; less polar) [Example 3]	156
C=CCOC(=O)[C@H](CCCNC(=N)N)NC(=O)[C@@H](NC(=O)C(Cc1ccc(C(=N)N)cc1)C(=O)N(C)Cc1ccccc1)C1CCCCC1 (single isomer, unassigned; less polar) [Example 6]	1
CC(C)C[C@H](NC(=O)[C@H](CCCNC(=N)N)NC(=O)[C@@H](NC(=O)C(Cc1ccc(N)cc1)C(=O)N(C(C)C)C(C)C)C1CCCCC1)C(=O)N1CCC[C@H]1C(N)=O (single isomer, unassigned; less polar) [Example 97]	40
CCOC(=O)[C@H](CCCNC(=N)N)NC(=O)[C@@H](NC(=O)C(Cc1ccc(C(=N)N)cc1)C(=O)NCc1ccccc1)C1CCCCC1 (single isomer, unassigned; less polar) [Example 136]	10
N=C(N)NCCC[C@H](NC(=O)[C@@H](NC(=O)C(Cc1ccc(C(=N)N)cc1)C(=O)NCc1ccccc1)C1CCCCC1)C(N)=O (single isomer, unassigned; more polar) [Example 8]	35.1
CC(C)C[C@H](NC(=O)[C@H](Cc1ccc[n+](C)c1)NC(=O)[C@@H](NC(=O)C(Cc1ccc(C(=N)N)cc1)C(=O)N(C(C)C)C(C)C)C1CCCCC1)C(=O)N1CCC[C@H]1C(N)=O (single isomer, unassigned; more polar) [Example 94]	1700
CN(C)C(=O)C(Cc1ccc(C(=N)N)cc1)C(=O)N[C@H](C(=O)N(CC(N)=O)Cc1ccncc1)C1CCCCC1 (single isomer, unassigned; more polar) [Example 104]	6500
N=C(N)NCCC[C@H](NC(=O)[C@@H](NC(=O)C(Cc1ccc(C(=N)NO)cc1)C(=O)NCc1ccccc1)C1CCCCC1)C(N)=O (single isomer, unassigned; more polar) [Example 129]	360
N=C(N)NCCC[C@H](NC(=O)[C@@H](NC(=O)C(Cc1ccc(C(=N)NO)cc1)C(=O)NCc1ccccc1)C1CCCCC1)C(N)=O (stereo partly drawn) [Example 14, N-Benzyl-N′-[(S)-(1-(S)-carbamoyl-4-guanidino-butylcarbamoyl)-cyclohexyl-methyl]-2-[4-(N-hydroxycarbamimidoyl)-benzyl]-malonamide trifluoroacetic acid salt]	21.8
